Common to all, as to assay: inhibition of tumour cell growth, NCI panel, 48 h
Experiment [1] relates to K-562 leukemia.
Experiment [2] concerns RPMI-8226 leukemia.
In experiment [3] the test system is PC-3 prostate.
Experiment [4] has as its system UACC-257 melanoma.
Experiment [5] relates to UO-31 renal.
Experiment [6] deals with SK-MEL-5 melanoma.
Experiment [7] concerns NCI-H226 lung.
In experiment [8] the test system is BT-549 breast.
The test system of experiment [9] is HCT-15 colon.
Experiment [10] concerns HS 578T breast.

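The compound was tested at five concentrations on cells cultured in 96-well plates, with a 48-hour exposure period. TGI denotes the concentration required for complete inhibition of growth.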 Bounds are passed on as bounds.

Consider `NS(=O)(=O)c1ccc(Nc2c3ccccc3nc3c(C(=O)NC(CO)(CO)CO)cccc23)cc1`, for which the TGI in experiment [1] came to 0.642 µM; in [2], 0.683 µM; in experiment [3], 0.814 µM; in experiment [4] it was 0.346 µM; in [5] it was 0.366 µM; in experiment [6] it was 0.229 µM. In addition, the TGI in [7] stood at 0.315 µM; in experiment [8], 0.322 µM; in experiment [9] it was 0.948 µM; in experiment [10], 0.44 µM.
Consider `C(/C=C(\Nc1ccccc1)c1ccc2ccccc2c1)=Nc1ccccc1`, for which the TGI came to 4.22 µM in [1]; 5.67 µM in experiment [2]; 11.8 µM in experiment [3]; 19.2 µM in [4]; 15.8 µM in experiment [5]; 13.8 µM in experiment [6]. The TGI was 5.64 µM in [7], 4.6 µM in [8], 5.61 µM in experiment [9] and 13.7 µM in experiment [10].
Turning to `O=C1c2ccccc2CC12Cc1ccc3c(c1C2=O)CCCC3` (stereo not given), the TGI in experiment [1], in experiment [2], in experiment [3], in experiment [4], in [5] and in experiment [6] was greater than 100 µM in each case. Besides, the TGI was greater than 100 µM in [7], greater than 100 µM in experiment [8], greater than 100 µM in experiment [9] and 48.3 µM in experiment [10].
Take `c1ccc(-c2cc(-c3ccccc3)nc(-c3ccncc3)c2)cc1`: the TGI in experiment [1], in experiment [2], in experiment [3], in [4], in experiment [5] and in experiment [6] was greater than 100 µM in each case. Further, the TGI in experiment [7], in [8], in experiment [9] and in [10] was greater than 100 µM each time.
For `CC(C)C1OC(=O)C(Cc2ccccc2)N(C)C(=O)C(C(C)C)OC(=O)C(Cc2ccccc2)N(C)C(=O)C(C(C)C)OC(=O)C(Cc2ccccc2)N(C)C1=O` (stereo not given), the TGI in experiment [1] stood at 3.52 µM; in [2], 1.31 µM; in [3] it was 1.91 µM; in experiment [4] it was 2 µM; in [5], 1.27 µM; in [6], 1.08 µM. Moreover, the TGI was 2.72 µM in [7], 3.01 µM in experiment [8], 2.61 µM in experiment [9] and 4.9 µM in experiment [10].
Turning to `O=C1CC2(CCN(Cc3ccccc3)CC2)C(=O)N1N1CCCCC1`, the TGI in experiment [1], in experiment [2], in [3], in experiment [4], in [5] and in experiment [6] was greater than 100 µM each time. In addition, the TGI in experiment [7], in experiment [8], in [9] and in experiment [10] was greater than 100 µM each time.
On to `O=C(OC1C#CCSCC#C/C=C\1)c1ccc2c(c1)C(=O)c1ccccc1C2=O` (stereo not given), for which the TGI in experiment [1], in experiment [2], in [3], in experiment [4], in experiment [5] and in [6] was greater than 100 µM throughout. The TGI was greater than 100 µM in experiment [7], 54.1 µM in experiment [8], greater than 100 µM in experiment [9] and greater than 100 µM in experiment [10].
Take `C=CCN(C(C)=O)c1cc(OCc2ccccc2)c2c(c1)c(C)cn2S(=O)(=O)c1ccccc1`: the TGI in experiment [1] was greater than 54.8 µM; in [2], greater than 28.5 µM; in experiment [3], greater than 78.4 µM; in experiment [4], greater than 100 µM; in experiment [5] it was greater than 100 µM; in [6], 21.5 µM. Besides, the TGI in [7] was greater than 31.1 µM; in experiment [8], greater than 100 µM; in experiment [9], greater than 100 µM; in experiment [10], greater than 70.4 µM.
`CCCCCCCC(=O)NC(C)(C)C(=O)NCC(=O)NC(CC(C)C)C(=O)NC(C)(C)C(=O)NCC(=O)NCC(=O)NC(CC(C)C)C(=O)NC(C)(C)C(=O)NCC(=O)NC(C(=O)NC(CO)CC(C)C)C(C)CC` (stereo not given): the TGI in [1] came out at 9.11 µM; in [2] it was 4.27 µM; in experiment [3] it was 7.08 µM; in [4], 7.96 µM; in [5] it was 7.93 µM; in experiment [6], 7.19 µM. Moreover, the TGI in [7] came to 8.48 µM; in [8], 6.87 µM; in [9], 10.3 µM; in experiment [10] it was 8.81 µM.
Turning to `Cc1cccc(NC(=S)NNC(=O)c2cc(-c3ccccc3)nc3ccccc23)c1`, the TGI was greater than 100 µM in [1]; 83.6 µM in experiment [2]; 83.3 µM in experiment [3]; greater than 100 µM in [4]; 57.1 µM in experiment [5]; 39 µM in experiment [6]. Further, the TGI in experiment [7], in [8], in experiment [9] and in experiment [10] was greater than 100 µM throughout.
As for `CC1(C)OCC(/C=C\C(O)CC2(C)OCCO2)CO1` (stereo not given), the TGI in experiment [1], in experiment [2], in experiment [3], in experiment [4], in [5] and in experiment [6] was greater than 100 µM throughout. The TGI in experiment [7], in [8], in experiment [9] and in experiment [10] was greater than 100 µM each time.
For `COc1cccc(C2c3cc4c(cc3OC(NNS(=O)(=O)c3ccc(C)cc3)C2C)OCO4)c1O` (stereo not given), the TGI was 39.4 µM in [1]; 32.4 µM in [2]; 65.8 µM in experiment [3]; greater than 100 µM in experiment [4]; greater than 100 µM in experiment [5]; 42 µM in experiment [6]. Besides, the TGI in experiment [7] is greater than 100 µM; in experiment [8], 68.8 µM; in experiment [9], greater than 100 µM; in experiment [10], 41.6 µM.
As for `O=C(O)COc1c(Cl)cc(Cl)c(C(c2c(Cl)cc(Cl)c(OCC(=O)O)c2Cl)C(Cl)(Cl)Cl)c1Cl`, the TGI in experiment [1] was greater than 100 µM; in experiment [2] it was 85.9 µM; in [3], greater than 100 µM; in [4] it was 59.8 µM; in experiment [5] it was 55.2 µM; in experiment [6], 40.6 µM. For the same compound, the TGI is 64.1 µM in experiment [7], 51.3 µM in [8], 76 µM in experiment [9] and greater than 100 µM in experiment [10].
